In the NIST ThermoML archive (doi:10.1021/je8008254):
Several values for one entry are separate records, joined by “and”; a condition that tells them apart may be missing. Equal entries are not always repeated. Numbers after ± are expanded uncertainties.

Key:
[1] = for mass density / viscosity: 101 kPa, Liquid
[2] = xn = mol fraction of the nth substance listed; settings: 101 kPa, Liquid

## CCO [ethanol]
[1]; 298.15 K
  mass density: 785.17 ± 1.4 kg/m3
  viscosity: 1.09 ± 0.05 mPa·s
[1]; 308.15 K
  mass density: 776.49 ± 1.4 kg/m3
  viscosity: 0.912 ± 0.046 mPa·s
[1]; 318.15 K
  mass density: 767.67 ± 1.5 kg/m3
  viscosity: 0.774 ± 0.04 mPa·s
[1]; 328.15 K
  mass density: 758.65 ± 1.5 kg/m3
  viscosity: 0.664 ± 0.035 mPa·s
[1]; 338.15 K
  mass density: 749.35 ± 1.6 kg/m3
  viscosity: 0.589 ± 0.032 mPa·s
[1]; 348.15 K
  mass density: 739.75 ± 1.6 kg/m3
  viscosity: 0.512 ± 0.028 mPa·s

## CO [methanol]
[1]; 298.15 K
  mass density: 786.64 ± 1.4 kg/m3
  viscosity: 0.577 ± 0.031 mPa·s
[1]; 308.15 K
  mass density: 777.15 ± 1.4 kg/m3
  viscosity: 0.525 ± 0.029 mPa·s
[1]; 318.15 K
  mass density: 767.59 ± 1.5 kg/m3
  viscosity: 0.481 ± 0.027 mPa·s
[1]; 328.15 K
  mass density: 757.83 ± 1.5 kg/m3
  viscosity: 0.443 ± 0.025 mPa·s

## CCCCn1cc[n+](C)c1.N#C[S-] [1-butyl-3-methylimidazolium thiocyanate]
[1]; 298.15 K
  mass density: 1069.79 ± 1.6 kg/m3
  viscosity: 51.7 ± 1.2 mPa·s
[1]; 308.15 K
  mass density: 1063.89 ± 1.6 kg/m3
  viscosity: 34.9 ± 1.3 mPa·s
[1]; 318.15 K
  mass density: 1058.02 ± 1.6 kg/m3
  viscosity: 24.2 ± 0.9 mPa·s
[1]; 328.15 K
  mass density: 1052.19 ± 1.5 kg/m3
  viscosity: 16.7 ± 0.7 mPa·s
[1]; 338.15 K
  mass density: 1046.43 ± 1.5 kg/m3
  viscosity: 12.73 ± 0.51 mPa·s and 12.7 ± 0.5 mPa·s
[1]; 348.15 K
  mass density: 1040.7 ± 1.4 kg/m3
  viscosity: 9.98 ± 0.41 mPa·s
[1]; Glass, DTA
  Glass transition temperature: -91.5 ± 7.3 °C

## CCCCn1cc[n+](C)c1.N#C[S-] [1-butyl-3-methylimidazolium thiocyanate] + CCO
[2]; 298.15 K, x1 = 0.0473
  mass density: 829.74 ± 1.2 kg/m3
  viscosity: 1.48 ± 0.07 mPa·s
[2]; 298.15 K, x1 = 0.1129
  mass density: 876.41 ± 0.98 kg/m3
  viscosity: 2.07 ± 0.1 mPa·s
[2]; 298.15 K, x1 = 0.1877
  mass density: 916.69 ± 0.81 kg/m3
  viscosity: 2.95 ± 0.14 mPa·s
[2]; 298.15 K, x1 = 0.2943
  mass density: 957.41 ± 0.68 kg/m3
  viscosity: 4.7 ± 0.21 mPa·s
[2]; 298.15 K, x1 = 0.3637
  mass density: 978.05 ± 0.62 kg/m3
  viscosity: 6.36 ± 0.27 mPa·s
[2]; 298.15 K, x1 = 0.5306
  mass density: 1014.59 ± 0.72 kg/m3
  viscosity: 11.7 ± 0.5 mPa·s
[2]; 298.15 K, x1 = 0.696
  mass density: 1039.72 ± 1 kg/m3
  viscosity: 19.7 ± 0.8 mPa·s
[2]; 298.15 K, x1 = 0.8114
  mass density: 1052.9 ± 1.2 kg/m3
  viscosity: 27.4 ± 1 mPa·s
[2]; 298.15 K, x1 = 0.9174
  mass density: 1062.78 ± 1.4 kg/m3
  viscosity: 36.2 ± 1.4 mPa·s
[2]; 298.15 K, x1 = 1
  mass density: 1069.79 ± 1.6 kg/m3
  viscosity: 51.7 ± 1.2 mPa·s
[2]; 308.15 K, x1 = 0.0473
  mass density: 821.61 ± 1.2 kg/m3
  viscosity: 1.23 ± 0.06 mPa·s
[2]; 308.15 K, x1 = 0.1129
  mass density: 868.74 ± 1 kg/m3
  viscosity: 1.71 ± 0.08 mPa·s
[2]; 308.15 K, x1 = 0.1877
  mass density: 909.46 ± 0.85 kg/m3
  viscosity: 2.41 ± 0.11 mPa·s
[2]; 308.15 K, x1 = 0.2943
  mass density: 950.56 ± 0.71 kg/m3
  viscosity: 3.77 ± 0.17 mPa·s
[2]; 308.15 K, x1 = 0.3637
  mass density: 971.37 ± 0.65 kg/m3
  viscosity: 4.95 ± 0.22 mPa·s
[2]; 308.15 K, x1 = 0.5306
  mass density: 1008.22 ± 0.69 kg/m3
  viscosity: 8.89 ± 0.36 mPa·s
[2]; 308.15 K, x1 = 0.696
  mass density: 1033.57 ± 0.98 kg/m3
  viscosity: 14.3 ± 0.6 mPa·s
[2]; 308.15 K, x1 = 0.8114
  mass density: 1046.84 ± 1.2 kg/m3
  viscosity: 19.2 ± 0.7 mPa·s
[2]; 308.15 K, x1 = 0.9174
  mass density: 1056.82 ± 1.4 kg/m3
  viscosity: 24.7 ± 1 mPa·s
[2]; 308.15 K, x1 = 1
  mass density: 1063.89 ± 1.6 kg/m3
  viscosity: 34.9 ± 1.3 mPa·s
[2]; 318.15 K, x1 = 0.0473
  mass density: 813.39 ± 1.3 kg/m3
  viscosity: 1.05 ± 0.05 mPa·s
[2]; 318.15 K, x1 = 0.1129
  mass density: 861.06 ± 1.1 kg/m3
  viscosity: 1.44 ± 0.07 mPa·s
[2]; 318.15 K, x1 = 0.1877
  mass density: 902.2 ± 0.88 kg/m3
  viscosity: 2.01 ± 0.09 mPa·s
[2]; 318.15 K, x1 = 0.2943
  mass density: 943.72 ± 0.74 kg/m3
  viscosity: 3.1 ± 0.14 mPa·s
[2]; 318.15 K, x1 = 0.3637
  mass density: 964.72 ± 0.68 kg/m3
  viscosity: 3.94 ± 0.18 mPa·s
[2]; 318.15 K, x1 = 0.5306
  mass density: 1001.9 ± 0.65 kg/m3
  viscosity: 7 ± 0.29 mPa·s
[2]; 318.15 K, x1 = 0.696
  mass density: 1027.47 ± 0.95 kg/m3
  viscosity: 10.9 ± 0.4 mPa·s
[2]; 318.15 K, x1 = 0.8114
  mass density: 1040.84 ± 1.2 kg/m3
  viscosity: 14.2 ± 0.6 mPa·s
[2]; 318.15 K, x1 = 0.9174
  mass density: 1050.88 ± 1.4 kg/m3
  viscosity: 17.8 ± 0.7 mPa·s
[2]; 318.15 K, x1 = 1
  viscosity: 24.2 ± 0.9 mPa·s
[2]; 328.15 K, x1 = 0.0473
  mass density: 805.05 ± 1.3 kg/m3
  viscosity: 0.896 ± 0.045 mPa·s
[2]; 328.15 K, x1 = 0.1129
  mass density: 853.27 ± 1.1 kg/m3
  viscosity: 1.23 ± 0.06 mPa·s
[2]; 328.15 K, x1 = 0.1877
  mass density: 894.91 ± 0.92 kg/m3
  viscosity: 1.71 ± 0.08 mPa·s
[2]; 328.15 K, x1 = 0.2943
  mass density: 936.87 ± 0.77 kg/m3
  viscosity: 2.59 ± 0.12 mPa·s
[2]; 328.15 K, x1 = 0.3637
  mass density: 958.11 ± 0.71 kg/m3
  viscosity: 3.24 ± 0.15 mPa·s
[2]; 328.15 K, x1 = 0.5306
  mass density: 995.61 ± 0.66 kg/m3
  viscosity: 5.97 ± 0.26 mPa·s
[2]; 328.15 K, x1 = 0.696
  mass density: 1021.4 ± 0.91 kg/m3
  viscosity: 8.54 ± 0.35 mPa·s
[2]; 328.15 K, x1 = 0.8114
  mass density: 1034.86 ± 1.1 kg/m3
  viscosity: 10.9 ± 0.4 mPa·s
[2]; 328.15 K, x1 = 0.9174
  mass density: 1044.99 ± 1.3 kg/m3
  viscosity: 13.4 ± 0.5 mPa·s
[2]; 328.15 K, x1 = 1
  mass density: 1052.19 ± 1.5 kg/m3
  viscosity: 16.7 ± 0.7 mPa·s
[2]; 338.15 K, x1 = 0.0473
  mass density: 796.53 ± 1.3 kg/m3
  viscosity: 0.78 ± 0.04 mPa·s
[2]; 338.15 K, x1 = 0.1129
  mass density: 845.44 ± 1.1 kg/m3
  viscosity: 1.06 ± 0.05 mPa·s
[2]; 338.15 K, x1 = 0.1877
  mass density: 887.57 ± 0.95 kg/m3
  viscosity: 1.47 ± 0.07 mPa·s
[2]; 338.15 K, x1 = 0.2943
  mass density: 930.03 ± 0.8 kg/m3
  viscosity: 2.2 ± 0.1 mPa·s
[2]; 338.15 K, x1 = 0.3637
  mass density: 951.47 ± 0.74 kg/m3
  viscosity: 2.75 ± 0.13 mPa·s
[2]; 338.15 K, x1 = 0.5306
  mass density: 989.36 ± 0.69 kg/m3
  viscosity: 4.56 ± 0.21 mPa·s
[2]; 338.15 K, x1 = 0.696
  mass density: 1015.36 ± 0.88 kg/m3
  viscosity: 6.84 ± 0.29 mPa·s
[2]; 338.15 K, x1 = 0.8114
  mass density: 1028.95 ± 1.1 kg/m3
  viscosity: 8.64 ± 0.36 mPa·s
[2]; 338.15 K, x1 = 0.9174
  mass density: 1039.15 ± 1.3 kg/m3
  viscosity: 10.5 ± 0.4 mPa·s
[2]; 338.15 K, x1 = 1
  mass density: 1046.43 ± 1.5 kg/m3
  viscosity: 12.73 ± 0.51 mPa·s
[2]; 348.15 K, x1 = 0.0473
  mass density: 787.85 ± 1.4 kg/m3
[2]; 348.15 K, x1 = 0.1129
  mass density: 837.47 ± 1.2 kg/m3
  viscosity: 0.926 ± 0.046 mPa·s
[2]; 348.15 K, x1 = 0.1877
  mass density: 880.22 ± 0.99 kg/m3
  viscosity: 1.28 ± 0.06 mPa·s
[2]; 348.15 K, x1 = 0.2943
  mass density: 923.18 ± 0.83 kg/m3
  viscosity: 1.9 ± 0.09 mPa·s
[2]; 348.15 K, x1 = 0.3637
  mass density: 944.88 ± 0.77 kg/m3
[2]; 348.15 K, x1 = 0.5306
  mass density: 983.14 ± 0.72 kg/m3
  viscosity: 3.8 ± 0.17 mPa·s
[2]; 348.15 K, x1 = 0.696
  mass density: 1009.4 ± 0.85 kg/m3
  viscosity: 5.58 ± 0.25 mPa·s
[2]; 348.15 K, x1 = 0.8114
  mass density: 1023.05 ± 1.1 kg/m3
  viscosity: 7.01 ± 0.3 mPa·s
[2]; 348.15 K, x1 = 0.9174
  mass density: 1033.34 ± 1.3 kg/m3
  viscosity: 8.39 ± 0.35 mPa·s
[2]; 348.15 K, x1 = 1
  mass density: 1040.7 ± 1.4 kg/m3
  viscosity: 9.98 ± 0.41 mPa·s
